# Experimental data reported in ChEMBL document CHEMBL1153587, “Design, synthesis and biological evaluation of novel nitrogen and sulfur containing hetero-1,4-naphthoquinones as potent antifungal and antibacterial agents” (2009).
# Experiments:
# Type in all cases: functional
# Escherichia coli = experiment: Antibacterial activity against Escherichia coli after 24 hrs by broth microdilution method
# Klebsiella pneumoniae = experiment: Antibacterial activity against Klebsiella pneumoniae ATCC 27736 after 24 hrs by broth microdilution method
# Staphylococcus aureus = experiment: Antibacterial activity against Staphylococcus aureus ATCC 25923 after 24 hrs by broth microdilution method
# Aspergillus fumigatus = experiment: Antifungal activity against Aspergillus fumigatus after 72 hrs by broth microdilution method
# Candida albicans = experiment: Antifungal activity against Candida albicans after 48 hrs by broth microdilution method
# Candida parapsilosis = experiment: Antifungal activity against Candida parapsilosis ATCC 22019 after 48 hrs by broth microdilution method; details: Lodderomyces parapsilosis, ATCC 22019, 48 h
# [1] = system: Trichophyton mentagrophytes; experiment: Antifungal activity against sTrichophyton mentagrophytes after 96 hrs by broth microdilution method
# Cryptococcus neoformans = experiment: Antifungal activity against Cryptococcus neoformans after 72 hrs by broth microdilution method
# Sporothrix schenckii = experiment: Antifungal activity against Sporothrix schenckii after 72 hrs by broth microdilution method
Molecule,MIC (Escherichia coli) [µg/mL],MIC (Klebsiella pneumoniae) [µg/mL],MIC (Staphylococcus aureus) [µg/mL],MIC (Aspergillus fumigatus) [µg/mL],MIC (Candida albicans) [µg/mL],MIC (Candida parapsilosis) [µg/mL],MIC [1] [µg/mL],MIC (Cryptococcus neoformans) [µg/mL],MIC (Sporothrix schenckii) [µg/mL],"MIC (Klebsiella pneumoniae; ATCC 27736, 24 h) [µg/mL]","MIC (Staphylococcus aureus; ATCC 25923, 24 h) [µg/mL]"
GENTAMICIN,0.18,0.39,0.78,–,–,–,–,–,–,–,–
OC(Cn1cncn1)(Cn1cncn1)c1ccc(F)cc1F [FLUCONAZOLE],–,–,–,2,1,1,1.56,0.5,2,–,–
N#Cc1ccccc1NC1=C(Cl)C(=O)c2ccccc2C1=O,–,–,–,> 50,50,25,> 50,50,> 50,–,–
NCC[C@H](O)C(=O)N[C@@H]1C[C@H](N)[C@@H](O[C@H]2O[C@H](CN)[C@@H](O)[C@H](O)[C@H]2O)[C@H](O)[C@H]1O[C@H]1O[C@H](CO)[C@@H](O)[C@H](N)[C@H]1O [AMIKACIN],1,–,–,–,–,–,–,–,–,1,16
N#Cc1ccccc1NC1=C(Nc2ccccc2C#N)C(=O)c2ccccc2C1=O,–,–,–,> 50,> 50,50,> 50,25,> 50,–,–
NYSTATIN,–,–,–,–,7.8,–,–,3.5,13.2,–,–
O=C1C(Cl)=C(N(c2ccccc2)c2ccccc2)C(=O)c2ccccc21,> 50,–,–,50,12.5,12.5,50,25,6.25,25,25
C[C@@H]1[C@H](O)[C@@H](C)/C=C/C=C/C=C/C=C/C=C/C=C/C=C/[C@H](O[C@@H]2O[C@H](C)[C@@H](O)[C@H](N)[C@@H]2O)C[C@@H]2O[C@](O)(C[C@@H](O)C[C@@H](O)[C@H](O)CC[C@@H](O)C[C@@H](O)CC(=O)O[C@H]1C)C[C@H](O)[C@H]2C(=O)O [AMPHOTERICIN B],–,–,–,–,0.39,–,1.56,0.78,–,–,–
O=C1C(Nc2ccc(O)cc2)=C(Sc2ccccc2)C(=O)c2ccccc21,> 50,–,–,–,–,–,–,–,–,> 50,50
Cn1c(N)c2ccccc2nc2c(=O)c3ccccc3c(=O)c1=2,25,–,–,25,> 50,50,25,50,25,50,> 50
O=C1C(Cl)=C(Sc2ccccc2)C(=O)c2ccccc21,12.5,–,–,–,–,–,–,–,–,> 50,25
O=C1C(Cl)=C(Nc2ccc(O)cc2)C(=O)c2ccccc21,> 50,–,–,3.12,1.56,6.25,1.56,0.78,1.56,6.25,6.25
N#Cc1ccccc1NC1=C(Br)C(=O)c2ccccc2C1=O,–,–,–,> 50,25,12.5,6.25,12.5,> 50,–,–
COc1cccc(SC2=C(N)C(=O)c3ccccc3C2=O)c1,> 50,–,–,6.25,12.5,25,12.5,12.5,25,12.5,25
COc1cccc(SC2=C(N(c3ccccc3)c3ccccc3)C(=O)c3ccccc3C2=O)c1,> 50,–,–,–,–,–,–,–,–,50,25
COc1cccc(SC2=C(Cl)C(=O)c3ccccc3C2=O)c1,12.5,–,–,–,–,–,–,–,–,> 50,25

Molecule,MIC (Escherichia coli) [µg/mL],MIC (Klebsiella pneumoniae) [µg/mL],MIC (Staphylococcus aureus) [µg/mL],MIC (Aspergillus fumigatus) [µg/mL],MIC (Candida albicans) [µg/mL],MIC (Candida parapsilosis) [µg/mL],MIC [1] [µg/mL],MIC (Cryptococcus neoformans) [µg/mL],MIC (Sporothrix schenckii) [µg/mL],"MIC (Klebsiella pneumoniae; ATCC 27736, 24 h) [µg/mL]","MIC (Staphylococcus aureus; ATCC 25923, 24 h) [µg/mL]"
Nc1c2ccccc2nc2c(=O)c3ccccc3c(=O)c=2n1-c1ccccc1,–,–,–,> 50,25,25,12.5,25,> 50,–,–
NC1=C(Sc2ccccc2)C(=O)c2ccccc2C1=O,> 50,–,–,6.25,12.5,12.5,12.5,25,25,1.56,6.25
O=C1C(Sc2cccc3ccccc23)=C(N(c2ccccc2)c2ccccc2)C(=O)c2ccccc21,–,–,–,50,25,> 50,50,> 50,> 50,–,–
O=C1C(Cl)=C(Sc2cccc3ccccc23)C(=O)c2ccccc21,25,–,–,–,–,–,–,–,–,> 50,> 50
O=C1C(Cl)=C(NCCN2C(=O)c3ccccc3C2=O)C(=O)c2ccccc21,6.25,–,–,–,–,–,–,–,–,50,6.25
O=C1C(Nc2ccccc2)=C(Sc2ccccc2)C(=O)c2ccccc21,> 50,–,–,–,–,–,–,–,–,25,> 50
O=c1c2[nH]c3ccccc3sc=2c(=O)c2ccccc12,25,–,–,–,–,–,–,–,–,> 50,25
O=C1C(Sc2ccccc2)=C(N(c2ccccc2)c2ccccc2)C(=O)c2ccccc21,> 50,–,–,–,–,–,–,–,–,50,50
Clc1ccc(COC(Cn2ccnc2)c2ccc(Cl)cc2Cl)c(Cl)c1 (configuration not stated) [MICONAZOLE],–,–,–,12.5,25,–,< 0.78,12.5,–,–,–
O=C1C(Cl)=C(Nc2ccccc2)C(=O)c2ccccc21,> 50,–,–,> 50,> 50,> 50,> 50,> 50,> 50,> 50,> 50
COc1ccc2[nH]c3c(=O)c4ccccc4c(=O)c=3sc2c1,25,–,–,–,–,–,–,–,–,> 50,12.5
O=C1C(Nc2ccccc2)=C(Sc2cccc3ccccc23)C(=O)c2ccccc21,–,–,–,> 50,50,> 50,> 50,> 50,> 50,–,–
NC[C@H]1O[C@H](O[C@H]2[C@H](O)[C@@H](O[C@H]3O[C@H](CO)[C@@H](O)[C@H](N)[C@H]3O)[C@H](N)C[C@@H]2N)[C@H](N)C[C@@H]1O [TOBRAMYCIN],0.5,–,–,–,–,–,–,–,–,1,0.25
NC1=C(Sc2cccc3ccccc23)C(=O)c2ccccc2C1=O,> 50,–,–,25,25,50,25,50,> 50,12.5,12.5
NC[C@H]1O[C@H](O[C@H]2[C@H](O)[C@@H](O[C@H]3O[C@H](CO)[C@@H](O)[C@H](N)[C@H]3O)[C@H](N)C[C@@H]2N)[C@H](O)[C@@H](O)[C@@H]1O [KANAMYCIN],16,–,–,–,–,–,–,–,–,32,2
